Reference: ChEMBL document CHEMBL2417359, “Discovery of N-(2,3,5-triazoyl)mycophenolic amide and mycophenolic epoxyketone as novel inhibitors of human IMPDH” (Bioorg Med Chem Lett, 2013)
Values joined by “and” are separate entries in the source; they are usually repeats but may differ in a detail not shown here. Equal values may be shown once. Active and inactive are the calls of the source. The rule behind the calls is not given here.

How the values were obtained:
[1] = system: K562; experiment: Cytotoxicity against human K562 cells; assay type: functional, cell-based
[2] = system: K562; experiment: Antiproliferative activity against human K562 cells at 1 mM in presence of guanosine; assay type: functional, cell-based
[3] = system: K562; experiment: Induction of human K562 cell differentiation at 1 uM after 72 hrs by trypan blue exclusion assay in presence of guanosine; assay type: functional, cell-based
[4] = system: K562; experiment: Antiproliferative activity against human K562 cells at 1 uM in presence of guanosine; assay type: functional, cell-based
[5] = target: Histone deacetylase (Homo sapiens) (UniProt Q13547+O15379+Q9UBN7+Q92769+Q9UQL6+Q8WUI4+Q9BY41+Q96DB2+P56524+Q9UKV0+Q969S8); experiment: Inhibition of HDAC in human K562 cells using Boc-Lys[Ac]-AMC as substrate at 10 uM incubated for 10 mins prior to substrate addition measured after 80 mins by fluorescence assay; assay type: cell-based
[6] = system: K562; experiment: Antiproliferative activity against human K562 cells at 1 uM; assay type: functional, cell-based
[7] = target: Inosine-5'-monophosphate dehydrogenase 1 (Homo sapiens, UniProt P20839); experiment: Inhibition of human IMPDH1
Chain of Inosine-5'-monophosphate dehydrogenase 1 (P20839 whole entry): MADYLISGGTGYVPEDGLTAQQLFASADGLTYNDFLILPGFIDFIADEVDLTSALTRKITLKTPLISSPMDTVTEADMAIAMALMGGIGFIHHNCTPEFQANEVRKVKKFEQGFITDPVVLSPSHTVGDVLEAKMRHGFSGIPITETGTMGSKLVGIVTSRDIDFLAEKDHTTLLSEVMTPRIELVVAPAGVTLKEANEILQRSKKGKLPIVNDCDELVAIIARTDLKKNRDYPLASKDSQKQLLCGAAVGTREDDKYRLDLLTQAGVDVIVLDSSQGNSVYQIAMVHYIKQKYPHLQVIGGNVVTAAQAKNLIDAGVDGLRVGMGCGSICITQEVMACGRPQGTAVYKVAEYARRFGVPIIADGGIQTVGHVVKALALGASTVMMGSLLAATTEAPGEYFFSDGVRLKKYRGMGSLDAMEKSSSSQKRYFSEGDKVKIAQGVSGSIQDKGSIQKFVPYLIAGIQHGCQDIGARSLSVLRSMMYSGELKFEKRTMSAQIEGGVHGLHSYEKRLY

[8] = target: Inosine-5'-monophosphate dehydrogenase 2 (Homo sapiens, UniProt P12268); experiment: Inhibition of human IMPDH2
[9] = system: K562; experiment: Induction of human K562 cell differentiation at 1 to 30 uM after 72 hrs by trypan blue exclusion assay in presence of guanosine; assay type: functional, cell-based
[10] = organism: Homo sapiens; experiment: Selectivity index, ratio of IC50 for human IMPDH1 to IC50 for human IMPDH2
[11] = system: K562; experiment: Induction of human K562 cell differentiation at 30 uM after 72 hrs by trypan blue exclusion assay; assay type: functional, cell-based
[12] = system: K562; experiment: Induction of human K562 cell differentiation at 5 uM after 72 hrs by trypan blue exclusion assay in presence of guanosine; assay type: functional, cell-based
[13] = system: K562; experiment: Antiproliferative activity against human K562 cells at 5 uM in presence of guanosine; assay type: functional, cell-based
[14] = system: K562; experiment: Antiproliferative activity against human K562 cells at 5 uM; assay type: functional, cell-based
[15] = system: K562; experiment: Induction of human K562 cell differentiation at 2.5 uM after 72 hrs by trypan blue exclusion assay in presence of guanosine; assay type: functional, cell-based
[16] = system: K562; experiment: Antiproliferative activity against human K562 cells at 2.5 uM in presence of guanosine; assay type: functional, cell-based
[17] = system: K562; experiment: Antiproliferative activity against human K562 cells at 2.5 uM; assay type: functional, cell-based

**Q.** How did the IC50 [1] turn out when `COc1c(C)c2c(c(O)c1C/C=C(\C)CCC(=O)Nc1ccccn1)C(=O)OC2` was run?
**A.** 26000 nM

**Q.** For `CCCC(=O)[O-].[Na+]`, which Activity [2] is on record?
**A.** Active

**Q.** Which Activity [3] does the source give for `COc1c(C)c2c(c(O)c1C/C=C(\C)CCC(=O)O)C(=O)OC2` here?
**A.** inactive

**Q.** And the Activity [4]?
**A.** inactive

**Q.** And the inhibition [5]?
**A.** 3%

**Q.** And the Activity [6]?
**A.** Active

**Q.** `COc1c(C)c2c(c(O)c1C/C=C(\C)CCC(=O)[C@@H]1CO1)C(=O)OC2` [listing 1 of 3 here] was tested. Which IC50 [7] did it give?
**A.** 680 nM

**Q.** What about the IC50 [8] of the same compound?
**A.** 387 nM

**Q.** What about the IC50 [1] of the same compound?
**A.** 2300 nM

**Q.** Which results are given for `COc1c(C)c2c(c(O)c1C/C=C(\C)CCC(=O)Nc1ncn[nH]1)C(=O)OC2`?
**A.** Activity [9]: inactive; Activity [4]: inactive; Ratio IC50 [10]: 1.1; IC50 [7]: 105 nM; IC50 [8]: 98 nM; Activity [6]: Active; Activity [11]: Active; IC50 [1]: 480 nM

**Q.** Which Activity [12] does the source give for `COc1c(C)c2c(c(O)c1C/C=C(\C)CCC(=O)[C@@H]1CO1)C(=O)OC2` [listing 2 of 3 here] here?
**A.** inactive

**Q.** What about the Activity [13] of the same compound?
**A.** inactive

**Q.** And the inhibition [5]?
**A.** 15% and 19%

**Q.** And the Ratio IC50 [10]?
**A.** 1.8 and 1.7

**Q.** And the Activity [14]?
**A.** Active

**Q.** For `COc1c(C)c2c(c(O)c1C/C=C(\C)CCC(=O)Nc1nncs1)C(=O)OC2`, which IC50 [1] is on record?
**A.** 27000 nM

**Q.** With `COc1c(C)c2c(c(O)c1C/C=C(\C)CCC(=O)Nn1cnnc1)C(=O)OC2` as the compound, how does the IC50 [1] read?
**A.** 31000 nM

**Q.** Which IC50 [7] does the source give for `COc1c(C)c2c(c(O)c1C/C=C(\C)CCC(=O)[C@@H]1CO1)C(=O)OC2` [listing 3 of 3 here] here?
**A.** 558 nM

**Q.** What about the IC50 [8] of the same compound?
**A.** 330 nM

**Q.** What about the IC50 [1] of the same compound?
**A.** 2900 nM

**Q.** For `COc1c(C)c2c(c(O)c1C/C=C(\C)CCCS)C(=O)OC2`, which IC50 [1] is on record?
**A.** 74000 nM

**Q.** Which results are given for `COc1c(C)c2c(c(O)c1C/C=C(\C)CCC(=O)NO)C(=O)OC2`?
**A.** Activity [15]: inactive; Activity [16]: inactive; inhibition [5]: 76%; Activity [17]: Active

**Q.** With `COc1c(C)c2c(c(O)c1C/C=C(\C)CCC(=O)Nc1nnn[nH]1)C(=O)OC2` as the compound, how does the IC50 [1] read?
**A.** 34000 nM

**Q.** How did the IC50 [1] turn out when `COc1c(C)c2c(c(O)c1C/C=C(\C)CCC(=O)Nc1nccs1)C(=O)OC2` was run?
**A.** 22000 nM

**Q.** How did the IC50 [1] turn out when `COc1c(C)c2c(c(O)c1C/C=C(\C)CCCSC(C)=O)C(=O)OC2` was run?
**A.** 26000 nM
